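Protocol summary: plate cells (96-well), add compound at 5 concentrations, incubate 48 h, interpolate endpoints linearly. GI50 marks 50% less growth. TGI is the concentration that stops growth completely.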
Legend:
Assay in all cases: growth of human tumour cells (NCI), 48 h
786-0 renal = test system: 786-0 renal
A498 renal = test system: A498 renal
A549 NSCLC = test system: A549 NSCLC
ACHN renal = test system: ACHN renal
BT-549 breast = test system: BT-549 breast
CAKI-1 renal = test system: CAKI-1 renal
CCRF-CEM leukemia = test system: CCRF-CEM leukemia
COLO 205 colon = test system: COLO 205 colon
DU-145 prostate = test system: DU-145 prostate
EKVX NSCLC = test system: EKVX NSCLC
HCC-2998 colon = test system: HCC-2998 colon
HCT-116 colon = test system: HCT-116 colon
HCT-15 colon = test system: HCT-15 colon
HL-60(TB) leukemia = test system: HL-60(TB) leukemia
HOP-62 NSCLC = test system: HOP-62 NSCLC
HOP-92 NSCLC = test system: HOP-92 NSCLC
HS 578T breast = test system: HS 578T breast
HT29 colon = test system: HT29 colon
IGROV1 ovarian = test system: IGROV1 ovarian
K-562 leukemia = test system: K-562 leukemia
KM12 colon = test system: KM12 colon
LOX IMVI melanoma = test system: LOX IMVI melanoma
M14 melanoma = test system: M14 melanoma
MALME-3M melanoma = test system: MALME-3M melanoma
MCF7 breast = test system: MCF7 breast
MDA-MB-231 breast = test system: MDA-MB-231 breast
MDA-MB-435 = test system: MDA-MB-435
MDA-MB-468 breast = test system: MDA-MB-468 breast
MOLT-4 leukemia = test system: MOLT-4 leukemia
NCI-H226 lung = test system: NCI-H226 lung
NCI-H23 lung = test system: NCI-H23 lung
NCI-H460 lung = test system: NCI-H460 lung
NCI-H522 lung = test system: NCI-H522 lung
NCI/ADR-RES ovarian = test system: NCI/ADR-RES ovarian
OVCAR-3 ovarian = test system: OVCAR-3 ovarian
OVCAR-4 ovarian = test system: OVCAR-4 ovarian
OVCAR-5 ovarian = test system: OVCAR-5 ovarian
OVCAR-8 ovarian = test system: OVCAR-8 ovarian
PC-3 prostate = test system: PC-3 prostate
RPMI-8226 leukemia = test system: RPMI-8226 leukemia
RXF 393 renal = test system: RXF 393 renal
SF-268 CNS = test system: SF-268 CNS
SF-295 CNS = test system: SF-295 CNS
SF-539 CNS = test system: SF-539 CNS
SK-MEL-2 melanoma = test system: SK-MEL-2 melanoma
SK-MEL-28 melanoma = test system: SK-MEL-28 melanoma
SK-MEL-5 melanoma = test system: SK-MEL-5 melanoma
SK-OV-3 ovarian = test system: SK-OV-3 ovarian
SN12C renal = test system: SN12C renal
SNB-19 CNS = test system: SNB-19 CNS
SNB-75 CNS = test system: SNB-75 CNS
SR leukemia = test system: SR leukemia
SW-620 colon = test system: SW-620 colon
T-47D breast = test system: T-47D breast
TK-10 renal = test system: TK-10 renal
U251 CNS = test system: U251 CNS
UACC-257 melanoma = test system: UACC-257 melanoma
UACC-62 melanoma = test system: UACC-62 melanoma
UO-31 renal = test system: UO-31 renal

Compound `C#C[C@]1(O)CC[C@H]2[C@@H]3CC=C4c5sc(Nc6ccc(C(F)(F)F)cn6)nc5CC[C@]4(C)[C@H]3CC[C@@]21C` has a GI50 (786-0 renal) of 1.47 µM, a TGI (786-0 renal) of 3.45 µM and a GI50 (A498 renal) of 2.43 µM. For the same compound, the TGI (A498 renal) was 5.45 µM, the GI50 (A549 NSCLC) was 6.95 µM and the TGI (A549 NSCLC) was > 100 µM. It also gave a GI50 (ACHN renal) of 3.34 µM, a TGI (ACHN renal) of 24.2 µM and a GI50 (BT-549 breast) of 2.54 µM. It also gave a TGI (BT-549 breast) of 8.13 µM, a GI50 (CAKI-1 renal) of 1.92 µM and a TGI (CAKI-1 renal) of 5.62 µM. For the same compound, the GI50 (CCRF-CEM leukemia) was 2.76 µM, the TGI (CCRF-CEM leukemia) was > 100 µM and the GI50 (COLO 205 colon) was 2.75 µM. For the same compound, the TGI (COLO 205 colon) was 13.8 µM, the GI50 (DU-145 prostate) was 4.6 µM and the TGI (DU-145 prostate) was 22.5 µM. It also gave a GI50 (EKVX NSCLC) of 2.15 µM, a TGI (EKVX NSCLC) of 8.58 µM and a GI50 (HCC-2998 colon) of 4.82 µM. For the same compound, the TGI (HCC-2998 colon) was 18.3 µM, the GI50 (HCT-116 colon) was 3.22 µM and the TGI (HCT-116 colon) was 13.7 µM. For the same compound, the GI50 (HCT-15 colon) was 1.72 µM, the TGI (HCT-15 colon) was 4.96 µM and the GI50 (HL-60(TB) leukemia) was 2.67 µM. For the same compound, the TGI (HL-60(TB) leukemia) was 7.65 µM, the GI50 (HOP-62 NSCLC) was 2.32 µM and the TGI (HOP-62 NSCLC) was 11.3 µM. For the same compound, the GI50 (HOP-92 NSCLC) was 5.41 µM, the TGI (HOP-92 NSCLC) was 26.1 µM and the GI50 (HS 578T breast) was 1.45 µM. The TGI (HS 578T breast) was 5.27 µM, the GI50 (HT29 colon) was 3.85 µM and the TGI (HT29 colon) was 30.5 µM. The GI50 (IGROV1 ovarian) was 4.16 µM, the TGI (IGROV1 ovarian) was 21 µM and the GI50 (K-562 leukemia) was 2.73 µM. The TGI (K-562 leukemia) was > 100 µM, the GI50 (KM12 colon) was 4.49 µM and the TGI (KM12 colon) was 18.4 µM. For the same compound, the GI50 (LOX IMVI melanoma) was 1.84 µM, the TGI (LOX IMVI melanoma) was 4.25 µM and the GI50 (M14 melanoma) was 2.57 µM. The TGI (M14 melanoma) was 9.92 µM, the GI50 (MALME-3M melanoma) was 2.89 µM and the TGI (MALME-3M melanoma) was 14.1 µM. It also gave a GI50 (MCF7 breast) of 1.96 µM, a TGI (MCF7 breast) of 4.49 µM and a GI50 (MDA-MB-231 breast) of 1.88 µM. It also gave a TGI (MDA-MB-231 breast) of 4.44 µM, a GI50 (MDA-MB-435) of 3.04 µM and a TGI (MDA-MB-435) of 11.9 µM. The GI50 (MDA-MB-468 breast) was 3.16 µM, the TGI (MDA-MB-468 breast) was 18.9 µM and the GI50 (MOLT-4 leukemia) was 2.62 µM. It also gave a TGI (MOLT-4 leukemia) of 13.7 µM, a GI50 (NCI-H226 lung) of 3.91 µM and a TGI (NCI-H226 lung) of 19.9 µM. The GI50 (NCI-H23 lung) was 3.08 µM, the TGI (NCI-H23 lung) was 15.5 µM and the GI50 (NCI-H460 lung) was 2.86 µM. For the same compound, the TGI (NCI-H460 lung) was 10.6 µM, the GI50 (NCI-H522 lung) was 3.97 µM and the TGI (NCI-H522 lung) was 16.2 µM. For the same compound, the GI50 (NCI/ADR-RES ovarian) was 3.76 µM, the TGI (NCI/ADR-RES ovarian) was 46 µM and the GI50 (OVCAR-3 ovarian) was 4.68 µM. For the same compound, the TGI (OVCAR-3 ovarian) was 35.1 µM, the GI50 (OVCAR-4 ovarian) was 3.65 µM and the TGI (OVCAR-4 ovarian) was 31 µM. The GI50 (OVCAR-5 ovarian) was 4.48 µM, the TGI (OVCAR-5 ovarian) was 23.8 µM and the GI50 (OVCAR-8 ovarian) was 9.96 µM. For the same compound, the TGI (OVCAR-8 ovarian) was > 100 µM, the GI50 (PC-3 prostate) was 1.98 µM and the TGI (PC-3 prostate) was > 100 µM. The GI50 (RPMI-8226 leukemia) was 0.564 µM, the TGI (RPMI-8226 leukemia) was > 100 µM and the GI50 (RXF 393 renal) was 0.723 µM. The TGI (RXF 393 renal) was 2.54 µM, the GI50 (SF-268 CNS) was 4.04 µM and the TGI (SF-268 CNS) was 32.6 µM. For the same compound, the GI50 (SF-295 CNS) was 0.565 µM, the TGI (SF-295 CNS) was 2.07 µM and the GI50 (SF-539 CNS) was 0.89 µM. The TGI (SF-539 CNS) was 2.66 µM, the GI50 (SK-MEL-2 melanoma) was 2.91 µM and the TGI (SK-MEL-2 melanoma) was 10.6 µM. It also gave a GI50 (SK-MEL-28 melanoma) of 1.39 µM, a TGI (SK-MEL-28 melanoma) of 2.93 µM and a GI50 (SK-MEL-5 melanoma) of 2.09 µM. For the same compound, the TGI (SK-MEL-5 melanoma) was 4.8 µM, the GI50 (SK-OV-3 ovarian) was 2.83 µM and the TGI (SK-OV-3 ovarian) was 26.7 µM. For the same compound, the GI50 (SN12C renal) was 4.77 µM, the TGI (SN12C renal) was 19.2 µM and the GI50 (SNB-19 CNS) was 2.9 µM. It also gave a TGI (SNB-19 CNS) of 12.2 µM, a GI50 (SNB-75 CNS) of 1.27 µM and a TGI (SNB-75 CNS) of 12.7 µM. It also gave a GI50 (SR leukemia) of 2.47 µM, a TGI (SR leukemia) of 20.4 µM and a GI50 (SW-620 colon) of 2.04 µM. For the same compound, the TGI (SW-620 colon) was 5.03 µM, the GI50 (T-47D breast) was 3.58 µM and the TGI (T-47D breast) was 18.4 µM. For the same compound, the GI50 (TK-10 renal) was 6.83 µM, the TGI (TK-10 renal) was 91.2 µM and the GI50 (U251 CNS) was 1.72 µM. The TGI (U251 CNS) was 11.3 µM, the GI50 (UACC-257 melanoma) was 3.85 µM and the TGI (UACC-257 melanoma) was 18.4 µM. For the same compound, the GI50 (UACC-62 melanoma) was 1.95 µM, the TGI (UACC-62 melanoma) was 4.5 µM and the GI50 (UO-31 renal) was 3.09 µM. It also gave a TGI (UO-31 renal) of 13.7 µM.

From PubChem BioAssay (NCI)
